From US20060063784A1, “Method of using substituted pyrazolo [1,5-a] pyrimidines” (priority 2004, published 2006) come the findings set out here.

Bounds are passed on as bounds.

In the first assay the test system is 80S14 (p21-deficient) cells. The experiment in a line: Cytotoxicity assay using isogenic cell lines: IC50 in 80S14 (p21-deficient) cells, SRB. Particulars: 80S14 (p21-deficient) cells, 5 days, SRB; class symbols; read-out: IC50 for 80S14. In kind it is cell-based, human. The essentials: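 IC50 is the concentration halving proliferation relative to untreated controls, read from SRB absorbance (560 nm) after TCA fixation. Test agent dilutions (5 pM–50 μM or 170 pg/ml–10 μg/ml) were left on p21-deficient 80S14 cells (12,000/well, pre-incubated overnight) for 5 days at 37 °C.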
For the compound `CN(C=O)c1cccc(-c2ccnc3c(C(=O)c4cccs4)cnn23)c1` [Example 261, Formamide, N-methyl-N-[3-[3-(2-thienylcarbonyl)pyrazolo[1,5-a]pyrimidin-7-yl]phenyl}], the IC50 lay within 1 to 10 µM. Consider “1-Methyl-N-{3-[3-(thien-2-ylcarbonyl)pyrazolo[1,5-a]pyrimidin-7-yl]phenyl}piperidine-4-carboxaamide [Example 417]”, for which the IC50 is 10 to 50 µM.

The same assay, now with this note: 80S14 p21-deficient cells, 5 days incubation, SRB; read-out: IC50 for 80SI4.
`O=C(Nc1cccc(-c2ccnc3c(C(=O)c4cccs4)cnn23)c1)c1ccc(Cl)cc1` [Example 89]: the 50% inhibitory concentration (IC50) lay in the range of 1 to 10 µM. On the same count and under the same terms, with `CN(C)CC(=O)Nc1cccc(-c2ccnc3c(C(=O)c4cccs4)cnn23)c1` [Example 64, N-2-N-2-dimethyl-N-1-{3-[3-(thien-2-ylcarbonyl)pyrazolo[1,5-a]pyrimidin-7-yl]phenyl}glycinamide] the figure was 1 to 10 µM. With `CC(=O)OCC(=O)Nc1cccc(-c2ccnc3c(C(=O)c4cccs4)cnn23)c1` [Example 62, 2-oxo-2-({3-[3-(thien-2-ylcarbonyl)pyrazolo[1.5-a]pyrimidin-7-yl]phenyl]amino)ethyl acetate], the IC50 was 1 to 10 µM.

With `O=C(CNC(=O)NC1CCCCC1)Nc1cccc(-c2ccnc3c(C(=O)c4cccs4)cnn23)c1` [Example 138, N-2-[(cyclohexylamino)carbonyl]-N1-{3-[3-(thien-2-ylcarbonyl)pyrazolo[1,5-a]pyrimidin-7-yl]phenyl}glycinamide], the IC50 lay in the range of 1 to 10 µM.

Still in this assay, the particulars now being: Homo sapiens, 80S14, 120 h, read-out: IC50 for 80S14 (uM).
For `CCC(=O)N(C)c1cccc(-c2ccnc3c(C(=O)c4cccs4)cnn23)c1` [Example 237, N-Methyl-N-[3-[3-(2-thienylcarbonyl)-pyrazolo[1,5-a]pyrimidin-7-yl]phenyl}-propanamide], the half-inhibitory concentration (IC50) lay in the range of 1 to 10 µM. As for `CC(C)CC(=O)Nc1cccc(-c2ccnc3c(C(=O)c4ccoc4)cnn23)c1` [Example 304, N-{3-[3-(3-Furoyl)pyrazolo[1,5-a]pyrimidin-7-yl]phenyl}-3-methylbutanamide], the half-maximal inhibitory concentration (IC50) fell in the range of 1 to 10 µM.

With `CC(C)(C)C(=O)Nc1cccc(-c2ccnc3c(C(=O)c4ccco4)cnn23)c1` [Example 243, N-[3-[3-(2-Furanylcarbonyl)pyrazolo-[1,5-a]pyrimidin-7-yl]phenyl}-2,2-dimethyl-propanamide], the IC50 lay in the range of 1 to 10 µM.

The same assay, now with this note: Homo sapiens, 80S14, 120 h, read-out: IC50 for 80SI4 (uM).
Take `CCC(CC)C(=O)Nc1cccc(-c2ccnc3c(C(=O)c4cccs4)cnn23)c1` [Example 150, 2-ethyl-N-{3-[3-(thien-2-ylcarbonyl)pyrazolo[1,5-a]pyrimidin-7-yl]phenyl}butanamide]: the IC50 was 1 to 10 µM. On the same count and under the same terms, the figure for `CC(C)(C)C(=O)Nc1cccc(-c2ccnc3c(C(=O)c4cccs4)cnn23)c1` [Example 48, 2,2-dimethyl-N-{3-[3-(thien-2-ylcarbonyl)pyrazolo[1,5-a]pyrimidin-7-yl]phenyl}propanamide] is below 1 µM.

Still in this assay, the particulars now being: Homo sapiens, 120 h; 80S14 (p21-deficient) cells, 5 days, SRB; class symbols; read-out: IC50 for 80S14.
With `C/C(=C\c1ccc(C(C)(C)C)cc1)CNc1cccc(-c2ccnc3c(C(=O)c4cccs4)cnn23)c1` [Example 413, [7-(3-{[(2E)-3-(4-tert-Butylphenyl)-2-methylprop-2-enyl]amino}phenyl)pyrazolo[1,5-a]pyrimidin-3-yl](thien-2-yl)methanone], the IC50 was 10 to 50 µM.

Take `COc1ccc(-c2ccnc3c(C(=O)c4cccs4)cnn23)cc1NC(=O)OC(C)C` [Example 316, Isopropyl 2-methoxy-5-[3-(2-thienylcarbonyl)pyrazolo[1,5-a]pyrimidin-7-yl]phenylcarbamate]: the IC50 lay in the range of 1 to 10 µM. `O=C(c1ccccc1)c1cnn2c(-c3cccc(NC(=O)C4CC4)c3)ccnc12` [Example 230, N-[3-(3-Benzoylpyrazolo-[1,5-a]pyrimidin-7-yl)phenyl]-cyclopropanecarboxamide]: the concentration for half-maximal inhibition (IC50) fell in the range of 1 to 10 µM. On the same count and under the same terms, with `CN(C(=O)C1CCC1)c1cccc(-c2ccnc3c(C(=O)c4ccco4)cnn23)c1` [Example 233, N-[3-[3-(2-Furanylcarbonyl)-pyrazolo[1,5-a]pyrimidin-7-yl]phenyl}-N-methyl-cyclobutanecarboxamide] the figure was 10 to 50 µM; with `COc1cc(/C=C/CNc2cccc(-c3ccnc4c(C(=O)c5cccs5)cnn34)c2)ccc1O` [Example 401, [7-(3-{[(2E)-3-(4-Hydroxy-3-methoxyphenyl)prop-2-enyl]amino}phenyl)pyrazolo[1,5-a]pyrimidin-3-yl](thien-2-yl)methanone], 10 to 50 µM; with `CN(C(=O)C1CCC1)c1cccc(-c2ccnc3c(C#N)cnn23)c1` [Example 234, N-[3-(3-Cyanopyrazolo[1,5-a]-pyrimidin-7-yl)phenyl]-N-methyl-cyclobutanecarboxamide], 1 to 10 µM. Still for that read-out and setting: with `O=C(Nc1cccc(-c2ccnc3c(C(=O)c4cccs4)cnn23)c1)c1cc(C(F)(F)F)ccc1C(F)(F)F` [Example 280, N-{3-[3-(2-Thienylcarbonyl)pyrazolo[1,5-a]pyrimidin-7-yl]phenyl}-2,5-bis(trifluoromethyl)benzamide] the figure was 10 to 50 µM; with `C/C(=C\c1ccccc1)CNc1cccc(-c2ccnc3c(C(=O)c4cccs4)cnn23)c1` [Example 397, [7-(3-{[(2E)-2-Methyl-3-phenylprop-2-enyl]amino}phenyl)pyrazolo[1,5-a]pyrimidin-3-yl] (thien-2-yl)methanone], 10 to 50 µM; with `Cc1ccc(C(=O)c2cnn3c(-c4cccc(N(C)C(=O)C5CC5)c4)ccnc23)cc1` [Example 268, N-Methyl-N-[3-[3-(4-methylbenzoyl)pyrazolo[1,5-a]pyrimidin-7-yl]phenyl}-cyclopropanecarboxamide], 10 to 50 µM. Turning to `CCC(C)CNc1cccc(-c2ccnc3c(C(=O)c4cccs4)cnn23)c1` (centres unmarked) [Example 402, (7-{3-[(2-Methylbutyl)amino]phenyl}pyrazolo[1,5-a]pyrimidin-3-yl)(thien-2-yl)methanone], the IC50 fell in the range of 1 to 10 µM.

The same assay, now with this note: Homo sapiens, 120 h; 80S14 p21-deficient cells, 5 days incubation, SRB; read-out: IC50 for 80SI4.
As for `Cn1cnc(S(=O)(=O)Nc2cccc(-c3ccnc4c(C(=O)c5cccs5)cnn34)c2)c1` [Example 39, 1-methyl-N-{3-[3-(thien-2-ylcarbonyl)pyrazolo[1,5-a]pyrimidin-7-yl]phenyl}-1H-imidazole-4-sulfonamide], the half-inhibitory concentration (IC50) was in the range of 10 to 50 µM. As for `C=CCC(C)OC(=O)Nc1cccc(-c2ccnc3c(C(=O)c4cccs4)cnn23)c1` (centres unmarked) [Example 189, 1-methylbut-3-enyl 3-[3-(thien-2-ylcarbonyl)pyrazolo[1,5-a]pyrimidin-7-yl]phenylcarbamate], the IC50 was below 1 µM. On the same count and under the same terms, with `O=C(Nc1cccc(-c2ccnc3c(C(=O)c4cccs4)cnn23)c1)N[C@H]1C[C@@H]1c1ccccc1` [Example 12, N-[(1S,2R)-2-phenylcyclopropyl]-N′-{3-[3-(thien-2-ylcarbonyl)pyrazolo[1,5-a]pyrimidin-7-yl]phenyl}urea] the figure was below 1 µM; with `Cc1cnc2c(C(=O)c3cccs3)cnn2c1-c1cccc(NC(=O)OCCCl)c1` [Example 212, 2-chloroethyl 3-[6-methyl-3-(thien-2-ylcarbonyl)pyrazolo[1,5-a]pyrimidin-7-yl]phenylcarbamate], 10 to 50 µM. For `COCC(=O)Nc1cccc(-c2ccnc3c(C(=O)c4cccs4)cnn23)c1` [Example 61, 2-methoxy-N-{3-[3-(thien-2-ylcarbonyl)pyrazolo[1,5-a]pyrimidin-7-yl]phenyl]acetamide], the 50% inhibitory concentration (IC50) was in the range of 1 to 10 µM. As to `O=C(Nc1cccc(-c2ccnc3c(C(=O)c4cccs4)cnn23)c1)c1ccc(F)cc1` [Example 112, 4-fluoro-N-{3-[3-(thien-2-ylcarbonyl)pyrazolo[1,5-a]pyrimidin-7-yl]phenyl}benzamide], the concentration for half-maximal inhibition (IC50) is below 1 µM.

As to `CC(C)NC(=O)Nc1cccc(-c2ccnc3c(C(=O)c4cccs4)cnn23)c1` [Example 6, N-isopropyl-N′-{3-[3-(thien-2-ylcarbonyl)pyrazolo[1,5-a]pyrimidin-7-yl]phenyl}urea], the IC50 was below 1 µM.

Take `CC(C)=CC(=O)Nc1cccc(-c2ccnc3c(C(=O)c4cccs4)cnn23)c1` [Example 45, 3-methyl-N-{3-[3-(thien-2-ylcarbonyl)pyrazolo[1,5-a]pyrimidin-7-yl]phenyl}but-2-enamide]: the IC50 was below 1 µM. With `CCC(OC(=O)Nc1cccc(-c2ccnc3c(C(=O)c4cccs4)cnn23)c1)C(C)C` (centres unmarked) [Example 184, 1-ethyl-2-methylpropyl 3-[3-(thien-2-ylcarbonyl)pyrazolo[1,5-a]pyrimidin-7-yl]phenylcarbamate], the IC50 was 1 to 10 µM. Same read-out and setting: with `O=C(CNC(=O)C1CCCC1)Nc1cccc(-c2ccnc3c(C(=O)c4cccs4)cnn23)c1` [Example 128, N-[2-oxo-2-({3-[3-(thien-2-ylcarbonyl)pyrazolo[1,5-a]pyrimidin-7-yl]phenyl}amino)ethyl]cyclopentanecarboxamide] the figure was 1 to 10 µM; with `C=CCCC(=O)Nc1cccc(-c2ccnc3c(C(=O)c4cccs4)cnn23)c1` [Example 57, N-{3-[3-(thien-2-ylcarbonyl)pyrazolo[1,5-a]pyrimidin-7-yl]phenyl}pent-4-enamide], below 1 µM. In the case of `CC1(C(=O)Nc2cccc(-c3ccnc4c(C(=O)c5cccs5)cnn34)c2)CCCCC1` [Example 143, 1-methyl-N-{3-[3-(thien-2-ylcarbonyl)pyrazolo[1,5-a]pyrimidin-7-yl]phenyl}cyclohexanecarboxamide], the IC50 was below 1 µM. Same read-out and setting: with `COc1ccc(OC)c(CC(=O)Nc2cccc(-c3ccnc4c(C(=O)c5cccs5)cnn34)c2)c1` [Example 110, 2-(2,5-dimethoxyphenyl)-N-{3-[3-(thien-2-ylcarbonyl)pyrazolo[1,5-a]pyrimidin-7-yl]phenyl}acetamide] the figure was 1 to 10 µM; with `C=CCOC(=O)NCC(=O)Nc1cccc(-c2ccnc3c(C(=O)c4cccs4)cnn23)c1` [Example 124, allyl 2-oxo-2-({3-[3-(thien-2-ylcarbonyl)pyrazolo[1,5-a)pyrimidin-7-yl]phenyl}amino)ethylcarbamate], 10 to 50 µM.
